Measurements taken from patent US8632452B2, “Peroxisome proliferator-activator receptor δ (PPARδ) and the development of preimplantation embryos” (Board of Regents of the University of Texas System, priority 2005, dated 2014).

Assays:
[1] = test system: preimplantation mouse embryos; experiment: BrdU uptake, proliferation index and cell number in cultured embryos; type: cell-based
Experimental: 5-Bromo-2′-deoxy-uridine (BrdU) uptake and the proliferation index. The proliferation of embryonic cells was determined based on their abilities to incorporate BrdU. The assay was performed using a commercial kit (BrdU Labeling and Detection Kit I, Roche Applied Science, Indianapolis, Ind.) according to manufacturer's protocols with some optimizations. One of the changes was the duration of incubation. […] For the comparison between control and L165,041 treated embryos, the optimal time was 6 minutes. The modified procedure is as follows. Immediately after harvest, the embryos were incubated in 100 μl pre-equilibrated HTF medium containing 10 μM BrdU for […] at 37° C. under 5% CO2. Following the incubation, the embryos were fixed in ice-cold glycine (50 mM) in 70% ethanol (pH2.0) at −20° C. for 30 mins. Following rehydration/blocking in phosphate buffered saline (PBS) containing 1% BSA, the embryos were incubated with diluted anti-BrdU mouse monoclonal antibody (1:2) in the incubation buffer containing 1% BSA and followed by another incubation with a diluted FITC-conjugated […] IgG antibody (1:4) in PBS containing 1% BSA. Both incubations were at 37° C. and lasted for 30 mins; the embryos were washed in 200 μl PBS containing 1% BSA after each incubation. After a final incubation in DAPI (5 μg /ml) for 90 mins at 25° C., the embryos were mounted in 0.1 M Tris HCl (pH 8.5) containing 16.6% Elvanol® 50-42 (DuPont Wilmington, Del., USA) and 2.5% 1,4-diazabicyclo-(2.2.2)-octane. Cells that were in S-phase and, therefore, incorporated BrdU were identified under a FITC filter. Total cell number was determined based on DAPI nuclear staining under a UV filter (AxioPlan 2, Carl Zeiss, Germany). The proliferation index (percent of cells in S-phase) was determined by dividing the number of BrdU-positive cells by the number of total cells then multiplies by 100%.
The proliferation of embryonic cells was determined based on their abilities to incorporate BrdU. […] Total cell number was determined based on Hoechst 33258 nuclear staining under a UV filter.

PPARδ+/+ embryos = experiment: Developmental stage (blastocyst formation) of cultured embryos at time of transfer; type: cell-based, mouse; details: wild type two-cell embryos treated 48 h
From the text: Harvest and culture of mouse embryos. Mice were obtained from the following sources: C3H, 129S1/SvImJ and C57BL6/J, the Jackson laboratory (Bar Harbor, Me., USA); ICR and C57BL6/Nhd, Harlan (Indianapolis, Ind., USA); PPARδ−/−, a gift from Dr. R. Evans (the Salk Institute, La Jolla, Calif.). The wild type (WT) counter parts of PPARδ−/− were bred by mating 129S1/SvImJ and the offspring of C57BL6/J×129S1/SvImJ. Mice were kept in temperature and humidity controlled environment (07:00 light on, 19:00 light off) with free access to food and water. The mouse embryos were harvested and cultured as described previously (Huang et al., 2003). […] Those completely free of the zona pellucida were counted as having completely hatched. The rate of complete hatching was calculated by dividing the number of completely hatched embryos by the number of total embryos. […]
Embryo transfer was performed as described previously (Huang et al., 2004b). […] Seventy-two h after embryo transfer, the rates of implantation were determined based on a previously-described method with modifications (Paria et al., 1993). […] After the carrier was sacrificed, the uterine horns were opened and the gestation sacs counted. The implantation rate was expressed as percentages of gestation sacs over total embryos transferred. […]

[2] = test system: preimplantation mouse embryos (wild type, PPARδ+/+); experiment: Complete hatching of cultured wild type mouse embryos; type: cell-based; details: for rate of complete hatching versus control, ligand added at two-cell, eight-cell or morula stage: exposure 0-96, 24-96 and 48-96 hrs; for rate of complete hatching versus control, ligand added at two-cell, eight-cell or morula stage / rate of complete hatching versus control, ligand added at blastocyst stage: read at 96 hrs; for rate of complete hatching versus control, ligand added at blastocyst stage: exposure 72-96 hrs; for proportion of completely hatched embryos: 0.1 μM each ligand from two-cell stage, untreated 30%
From the text: (§1) Harvest and culture of mouse embryos. Mice were obtained from the following sources: C3H, 129S1/SvImJ and C57BL6/J, the Jackson laboratory (Bar Harbor, Me., USA); ICR and C57BL6/Nhd, Harlan (Indianapolis, Ind., USA); PPARδ−/−, a gift from Dr. R. Evans (the Salk Institute, La Jolla, Calif.). The wild type (WT) counter parts of PPARδ−/− were bred by mating 129S1/SvImJ and the offspring of C57BL6/J×129S1/SvImJ. Mice were kept in temperature and humidity controlled environment (07:00 light on, 19:00 light off) with free access to food and water. The mouse embryos were harvested and cultured as described previously (Huang et al., 2003). Briefly, three-week old female mice were super-ovulated with intra-peritoneal injection of PMSG (5 IU) followed by hCG (5 IU) 42-46 hrs later. After hCG injection (at 15:00), each female mouse was caged with one male mouse with proven fertility. Unless specified otherwise, embryos (at two-cell stage) were harvested 44-48 hrs later and cultured (17-20 per group) at 37° C. under 5% CO2 in 4-well plates (Nalge Nunc International, Naperville, Ill., USA) containing 600 ul protein-free media. The HTF media (Sage Biopharma, Bedminster, N.J., USA) was used during the first 48 hrs; the αMEM (Irvine Scientific), with Earle's Salts and 2 mM glutamine, was used during the second 48 hrs. After 96 hrs of culture, each embryo was examined for the presence of zona pellucida. Those completely free of the zona pellucida were counted as having completely hatched. The rate of complete hatching was calculated by dividing the number of completely hatched embryos by the number of total embryos. Complete embryo hatching was used as an end point because it is a clear cut endpoint and correlates with the likelihood of implantation and viable pregnancy (Huang et al., 2003; Huang et al., 2004b). The concentration of the vehicle (DMSO) was less than 1:10,000; control embryos received the same concentration of DMSO. Prism® Version 3.0 (GraphPad Software Inc. San Diego, Calif.), with the Hill slope set at 1.0, was used to estimate the ED50 of L-165041. Chi-square and Student's t-tests were used where appropriate (InStat® Version 3.05, GraphPad Software Inc.). A p<0.05 was considered statistically significant.

[3] = test system: PPARδ+/+ embryos transferred to gestational carriers (ICR female mice); experiment: Embryo transfer to gestational carriers and determination of implantation rate; type: in vivo, mouse; details: wild type two-cell embryos treated 48 h, gestation sacs counted 72 h after transfer; control 41%, p<0.05
Experimental: Embryo transfer was performed as described previously (Huang et al., 2004b). Briefly, embryos were transferred to gestational carriers (ICR female mice) on day 2.5 of pseudopregnancy under a dissecting microscope (Olympus SZ-PT, Shinjuku-ku, Tokyo, Japan). After anesthesia, each uterine horn was accessed via a 1.5 cm flank incision. With the proximal oviduct held by a pair of forceps, an opening was created at the distal end of the uterine horn on the anti-mesenteric side with a 30 gauge needle. […] Up to seven embryos in 1.5 μl transfer medium (MEM with 25 mM HEPES and 1% BSA) were transferred to each horn. After each transfer, the contents of the pipette were examined under a stereomicroscope to identify retained embryos. To avoid the mixing of embryos as a result of embryo crossover (Dr. Andreas Zimmer, University of Bonn, Germany, MG118 List, the Jackson Laboratory), each gestational carrier received only one kind of embryo. […] Seventy-two h after embryo transfer, the rates of implantation were determined based on a previously-described method with modifications (Paria et al., 1993). […] After the carrier was sacrificed, the uterine horns were opened and the gestation sacs counted. The implantation rate was expressed as percentages of gestation sacs over total embryos transferred. […]

PPARδ−/− embryos = experiment: Complete hatching of cultured PPARδ−/− mouse embryos; type: cell-based; details: 96 h; for effect on hatching of PPARδ−/− embryos: 0.1 μM from two-cell stage
From the text: as §1, with “DMSO.” for “DMSO. Prism® Version 3.0 (GraphPad Software Inc. San Diego, Calif.), with the Hill slope set at 1.0, was used to estimate the ED50 of L-165041. Chi-square and Student's t-tests were used where appropriate (InStat® Version 3.05, GraphPad Software Inc.). A p<0.05 was considered statistically significant.”

[4] = test system: preimplantation mouse embryos (C3B6F1); experiment: TUNEL assay, dead cell index in cultured embryos; type: cell-based; details: 0.1 μM, 72 hrs of culture
Experimental: Terminal deoxynucleotidyl transferase mediated dUTP Nick End Labeling (TUNEL) and dead cell index. The embryonic cells that undergo programmed cell death were identified by TUNEL assay using a commercial kit (In Situ Cell Death Detection Kit, Roche Applied Science) with some modifications. At each time point indicated, embryos were collected after culture or harvested from mice and fixed in 4° C. PBS containing 4% buffered paraformaldehyde for 30 min. Prior to TUNEL, the embryos were incubated at 37° C. with 5% triton in PBS for 20 mins. The manufacturer's protocol was modified. Up to 20 blastocysts were incubated at 37° C. in 20 uL of TUNEL reaction solution (2 uL of TUNEL enzyme and 18 uL of 1:4 diluted labeling solution) in a humidified chamber for 60 mins. The embryos were then incubated in DAPI (30 ug/mL) for 5 mins at 37° C. before mounted in 16.6% Elvanol® 50-42 (Dupont, Wilmington, Del., USA) in 0.1 M Tris HCl pH 8.5. The apoptotic cells and the total cells were visualized using a fluorescence microscope (AxioPlan 2, Carl Zeiss, Germany) with FITC and UV filters, respectively. DNAse-treated embryos were used as positive controls. The dead cell index (percent of cells that were TUNEL positive) was determined by dividing the number of TUNEL-positive cells by the number of total cells then multiplies by 100%.

[5] = test system: mouse embryos transferred to gestational carriers; details: treated embryos transferred to gestational carriers; cited from earlier work

SMILES	cells in the S-phase (BrdU incorporation) versus control ([1]; 0.1 μM, 72 hrs of culture, BrdU 6 minutes)	average number of cells per embryo ([1]; 0.1 μM, 72 hrs of culture, same in control group)	percentages of BrdU-positive cells over the untreated control ([1]; 10 μM BrdU, wild type embryos)	blastocyst formation versus control (PPARδ+/+ embryos)	complete embryo hatching versus control ([2]; 1 μM ligand, two-cell embryos (C3B6F1), 96 hrs)	relative risk of complete hatching versus control group ([2]; 1 μM, 96 hrs, 95% confidence interval 1.08-3.36)	rate of complete hatching versus control, ligand added at two-cell, eight-cell or morula stage ([2]; 1 μM)	rate of complete hatching versus control, ligand added at two-cell, eight-cell or morula stage ([2]; 1 μM, listed as L-165041)	rate of complete hatching versus control, ligand added at blastocyst stage ([2]; 1 μM)	rate of complete hatching versus control, ligand added at blastocyst stage ([2]; 1 μM, listed as L-165041)	EC50 ([2]; Mus musculus, two-cell embryos cultured 96 hrs in different concentrations, estimated, Hill slope 1.0, read-out: ED50 of enhancement of complete embryo hatching) [nM]	proportion of completely hatched embryos ([2]; wild type embryos, 96 h) [%]	implantation rate (gestation sacs over embryos transferred) [3] [%]	effect on hatching of PPARδ−/− embryos (PPARδ−/− embryos)	dead (apoptotic, TUNEL positive) cells versus control [4]	more live births over control embryos [5] [%]	completely hatched embryos versus total embryos ([2]; wild type embryos, 0.1 μM, 96 h)	completely hatched embryos versus total embryos (PPARδ−/− embryos; PPARδ−/− embryos, 0.1 μM, untreated 4/144)
CCCc1c(OCCCOc2ccc(OCC(=O)O)cc2)ccc(C(C)=O)c1O [L165,041, 4-[3-(4-Acetyl-3-hydroxy-2-propylphenoxy)propoxy]phenoxy-acetic acid]	more cells in the S-phase	63	increased the percentages of BrdU-positive cells	did not significantly enhance blastocyst formation	enhanced complete embryo hatching	1.9	significantly higher rates of complete hatching	effective in stimulating embryo hatching	the difference was not statistically significant	no longer effective in stimulating hatching	21	54	64	Neither iloprost nor L-165041 affected the hatching of PPARδ−/− embryos	less dead cells			
CC#CCC(C)[C@H](O)/C=C/[C@@H]1[C@H]2C/C(=C/CCCC(=O)O)C[C@H]2C[C@H]1O (some centres unmarked) [iloprost]												50		had no effect		28	37/74	3/144
